Assay results taken from paper PMC6155600, “Design, Synthesis and Cellular Characterization of a Dual Inhibitor of 5-Lipoxygenase and Soluble Epoxide Hydrolase” (Molecules : A Journal of Synthetic Chemistry and Natural …, 2016).

Assays:
[1] = biological target: T1, soluble epoxide hydrolase (sEH) (Homo sapiens, UniProt P34913); assay: fluorescence-based enzyme activity assay with recombinant human sEH (PHOME substrate); assay type: biochemical
T1 construct: gene EPHX2
T1 sequence (P34913 1-555): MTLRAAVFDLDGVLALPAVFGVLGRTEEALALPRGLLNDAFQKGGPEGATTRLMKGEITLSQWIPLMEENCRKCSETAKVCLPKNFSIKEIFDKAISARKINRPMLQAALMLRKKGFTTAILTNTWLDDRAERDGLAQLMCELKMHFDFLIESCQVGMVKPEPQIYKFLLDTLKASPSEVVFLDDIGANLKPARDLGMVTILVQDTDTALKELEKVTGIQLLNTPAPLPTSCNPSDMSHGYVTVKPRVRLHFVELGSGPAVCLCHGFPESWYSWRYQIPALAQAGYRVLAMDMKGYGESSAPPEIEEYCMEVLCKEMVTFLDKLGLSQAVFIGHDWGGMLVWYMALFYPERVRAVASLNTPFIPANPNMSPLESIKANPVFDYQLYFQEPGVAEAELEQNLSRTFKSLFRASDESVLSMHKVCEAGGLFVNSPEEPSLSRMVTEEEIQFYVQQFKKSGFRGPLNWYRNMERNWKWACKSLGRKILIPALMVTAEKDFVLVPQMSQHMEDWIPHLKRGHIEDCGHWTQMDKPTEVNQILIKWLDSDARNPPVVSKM

5-lipoxygenase (5-LO) = biological target: T2, 5-lipoxygenase (5-LO) (Homo sapiens, UniProt P09917); assay: purified recombinant 5-LO activity assay, arachidonic acid substrate, HPLC product analysis; assay type: biochemical
T2 construct: gene ALOX5
T2 sequence (P09917 1-674): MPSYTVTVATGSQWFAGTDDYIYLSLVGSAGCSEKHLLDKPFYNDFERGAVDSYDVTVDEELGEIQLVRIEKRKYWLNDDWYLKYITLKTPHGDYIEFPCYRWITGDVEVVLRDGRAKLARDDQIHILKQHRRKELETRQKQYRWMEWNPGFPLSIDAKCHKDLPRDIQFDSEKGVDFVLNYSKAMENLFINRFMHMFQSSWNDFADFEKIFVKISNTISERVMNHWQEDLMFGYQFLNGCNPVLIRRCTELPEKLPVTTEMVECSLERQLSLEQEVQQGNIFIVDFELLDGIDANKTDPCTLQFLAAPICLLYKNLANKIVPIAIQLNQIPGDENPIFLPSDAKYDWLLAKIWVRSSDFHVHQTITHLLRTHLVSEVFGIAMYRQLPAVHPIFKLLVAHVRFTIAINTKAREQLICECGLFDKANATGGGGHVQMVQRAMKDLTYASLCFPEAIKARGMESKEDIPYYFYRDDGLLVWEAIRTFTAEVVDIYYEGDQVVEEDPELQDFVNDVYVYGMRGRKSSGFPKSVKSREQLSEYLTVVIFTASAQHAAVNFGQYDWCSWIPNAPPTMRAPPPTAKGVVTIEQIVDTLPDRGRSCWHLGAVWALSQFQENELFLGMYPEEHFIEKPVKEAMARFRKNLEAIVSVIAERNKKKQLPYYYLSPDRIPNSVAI

IC50 [1]: 29 nM
IC50 (5-lipoxygenase (5-LO)): 1300 nM
SMILES: COc1ccc(CN(O)C(N)=O)cc1OCCCNC(=O)Nc1ccc(OC(F)(F)F)cc1 [compound 5, 1-(3-{5-(Hydroxyureido)methyl-2-methoxyphenoxy}propyl)-3-[4-(trifluoromethoxy)phenyl]urea]
